What was measured:
[1] = tested on: C activation in dog serum; assay: Complement activation by different activators in dog serum, pan-species C3 method; format: biochemical; settings: SC5b-9 ELISA to determine SC5b-9
Experimental: Methods • The sera that were not of commercial origin were prepared from freshly drawn blood, which was let to clot at room temperature for 10-30 min, followed by centrifugation and collection of the supernatant. The serum was then stored at −80° C. until use. Zymosan (final concentration: 1.3 mg/ml) was prepared by suspending it at 2% in 0.15 M sodium chloride, boiling in a water bath for one hour, then centrifuged for 30 minutes at 4000 rpm. The supernatant was discarded and the residue suspended evenly in 0.15 M sodium chloride to 2%. • HAGG was diluted 100-fold (to a final concentration: 0.5 mg/mL). • 10 μL Zymosan (20 mg/ml) or HAGG were incubated for 1 h at 37° C. with a mixture of 20 μL animal serum, and 20 μl C3depl-NHS 100 μl PBS. The reaction was stopped by the addition of the 10 μl stop solution, and 100 μL of a 1:1600 dilution from the mixtures were applied to the wells of the SC5b-9 ELISA plates to measure the formation of SC5b-9 as specified by the manufacturer.
Materials and Methods • Dog blood was obtained from WellPet Animal Clinic (Kecskemét, Géza Fejedelem körút 51. Hungary). Serum was prepared by letting the blood clot at 4° C. for about 10 min (dog blood clots rapidly), followed by centrifugation and collection of supernatant serum. […]

[2] = tested on: rat C3; assay: C3 consumption in rats in vivo, PS-C3 method in hirudinized plasma samples; settings: 12.5 U/kg CVF
Experimental: Male Wistar rats (340-480 g) were anesthetized i.p. by Na-pentobarbital (Nembutal, 50 mg/kg) or thiobutabarbital (lnactin, 120 mg/kg). The left femoral artery and vein, left carotid artery, and right jugular vein were cannulated. Rats were anticoagualated with lepirudin (Refludan, 5 mg/kg), then injected i.v. with the C activator liposomes, Doxil and Ambisome. Blood samples were collected from the carotid artery at start (time 0) and at 1-3-5-10-30 min postinjection.
Similar experiments as described in Example 7, except that the rats were injected with 10 mg/kg zymosan or 12.5 U/kg CVF.
Similar experiments as described in Example 11, except that C activation was measured by Quidel's human SC5b-9 (A) and C3a kits (B). Rats were injected with 12.5 U/kg CVF.

## CCCCCCCC/C=C\CCCCCCCC(=O)OCCOCC(OCCO)C1OCC(OCCO)C1OCCO (stereo not shown) [Tween 80]
[1]
  rise of SC5b-9 over PBS control: ~30 fold

## CVF
[2]
  human C3a in the reaction mixture (Quidel's C3a kit): elevated
  time to consume essentially all C3: ≤ 30 min
[2]; within 30 min
  C3 consumed: essentially all C3

— patent publication US10254288B2, “Method for species-independent measurement of complement activation in animals” (Quidel Corporation, priority 2013, dated 2019)
